Consider two compounds from patent US11274280B2, “Generation of functional beta cells from human pluripotent stem cell-derived endocrine progenitors” (Novo Nordisk A/S, priority 2016, dated 2022).

The assay concerns hPSC-derived beta cells. The assay is described as follows: Perfusion assay of dynamic human insulin secretion in vitro. The note with it: human insulin ELISA. Format: cell-based. The method, then: Mature beta cells are functionally defined by their rapid response to elevated glucose. Secretion of human insulin by beta cells at the end of BC step 2 was measured as repeated responses to 20 mM glucose±1 μM exendin-4 or ±the anti-diabetic sulfonylurea compound Tolbutamide within a perfusion system.
Briefly, groups of 300 hand-picked, clusters of hESC- or hiPSC-derived cell clusters were suspended with beads (Bio-Rad #150-4124) in plastic chambers of Biorep PERFUSION SYSTEM (Biorep #PERI-4.2). Under temperature- and CO2-controlled conditions, the cells were perfused at 0.5 ml min-1 with a Krebs buffer. Prior to sample collection, cells were equilibrated under basal (2 mM glucose) conditions for 1 h. During perfusion cells were exposed to repeated challenges with 20 mM glucose±1 μM exendin-4 or ±100 μM Tolbutamide. At the end of perfusion, cells were exposed to cAMP-elevating agents on top of 20 mM glucose. Insulin secretion was measured by human insulin ELISA (Mercodia).

Regarding `CCCCNC(=O)NS(=O)(=O)c1ccc(C)cc1` [tolbutamide, Tolbutamide], the “effect on insulin secretion” value (100 μM Tolbutamide with 20 mM glucose, day 7 of BC step 2) was “significant additive effect”. Take exendin-4: under “1 μM exendin-4 with 20 mM glucose, day 3 and day 7 of BC step 2”, the “level of insulin secretion” value is recorded as “increased the level of insulin secretion”.
